Data from ChEMBL document CHEMBL4622851, “Cytotoxicity of 4-substituted quinoline derivatives: Anticancer and antileishmanial potential” (Bioorg Med Chem, 2020).
Active and inactive are the calls of the source. No cut-off for these calls is given here.

Experiments:
Jurkat [1] = assay: Cytotoxicity against human Jurkat cells assessed as reduction in cell viability after 24 hrs by MTT assay; assay type: functional, cell-based
[2] = Inhibition of Leishmania mexicana rCPB3.0 using Z-FR-AMC as substrate by spectrofluorometric analysis
Cysteine proteinase B = Cysteine proteinase B (Leishmania mexicana, UniProt P36400); assay: Inhibition of Leishmania mexicana rCPB2.8 using Z-FR-AMC as substrate by spectrofluorometric analysis
Cysteine proteinase B, sequence (P36400 whole entry): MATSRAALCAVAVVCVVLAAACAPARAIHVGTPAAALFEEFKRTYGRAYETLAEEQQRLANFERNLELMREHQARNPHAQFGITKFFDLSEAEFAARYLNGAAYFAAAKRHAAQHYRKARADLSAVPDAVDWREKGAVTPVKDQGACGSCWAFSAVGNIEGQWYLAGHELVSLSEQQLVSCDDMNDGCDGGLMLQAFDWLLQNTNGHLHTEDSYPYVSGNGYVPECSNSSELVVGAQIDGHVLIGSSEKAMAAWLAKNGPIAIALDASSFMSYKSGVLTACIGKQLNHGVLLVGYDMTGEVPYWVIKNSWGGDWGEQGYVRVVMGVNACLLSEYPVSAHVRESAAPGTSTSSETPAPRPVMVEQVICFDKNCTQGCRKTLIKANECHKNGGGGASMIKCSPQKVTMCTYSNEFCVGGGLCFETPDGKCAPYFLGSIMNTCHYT

Jurkat [3] = assay: Cytotoxicity against human Jurkat cells assessed as reduction in cell viability at 50 and 100 uM after 24 hrs by MTT assay; assay type: functional, cell-based
SK-MEL-147 [4] = assay: Cytotoxicity against human SK-MEL-147 cells assessed as reduction in cell viability at 50 and 100 uM after 24 hrs by MTT assay; assay type: functional, cell-based
SK-MEL-147 [5] = assay: Cytotoxicity against human SK-MEL-147 cells assessed as reduction in cell viability after 24 hrs by MTT assay; assay type: functional, cell-based; conditions: SK-MEL-147, 24 h
[6] = Inhibition of Leishmania mexicana rCPB3.0 H84Y mutant using Z-FR-AMC as substrate by spectrofluorometric analysis

Which EC50 (Jurkat [1]) does the source give for `COc1ccc2nc(-c3c(C)cccc3C)cc([Se]c3ccccc3)c2c1` here?
Its EC50 is 26.9 µM.

What about the IC50 [2] of the same compound?
Its IC50 is 7.44 µM.

And the IC50 (Cysteine proteinase B)?
Its IC50 is 12.9 µM.

What about the Activity (Jurkat [3]) of the same compound?
The Activity was “Active”.

And the Activity (SK-MEL-147 [4])?
Its Activity is “Active”.

What about the EC50 (SK-MEL-147 [5]) of the same compound?
The EC50 was 37.3 µM.

What about the IC50 [6] of the same compound?
Its IC50 is 20.4 µM.

With `CCOC(=O)c1cc([Se]c2ccc(OC)cc2)c2cc(OC)ccc2n1` as the compound, how does the EC50 (Jurkat [1]) read?
The EC50 was 82.5 to 97.3 µM.

What about the Activity (Jurkat [3]) of the same compound?
The Activity was “Active”.

What about the Activity (SK-MEL-147 [4]) of the same compound?
The Activity was “Active”.

What about the EC50 (SK-MEL-147 [5]) of the same compound?
The EC50 was 54.3 to 150 µM.

What does the source list for `CCOC(=O)c1cc(C#Cc2ccc(N)cc2)c2cc(OC)ccc2n1`?
EC50 (Jurkat [1]): 61 µM; Activity (Jurkat [3]): Active; Activity (SK-MEL-147 [4]): Active; EC50 (SK-MEL-147 [5]): 8.8 µM

For `CCOC(=O)c1cc([Se]Cc2ccccc2)c2cc(Br)ccc2n1`, which EC50 (Jurkat [1]) is on record?
Its EC50 is 53.6 µM.

What about the Activity (Jurkat [3]) of the same compound?
Its Activity is “Active”.

What about the Activity (SK-MEL-147 [4]) of the same compound?
The Activity was “Active”.

And the EC50 (SK-MEL-147 [5])?
The EC50 was 31.2 µM.

With `CCOC(=O)c1cc([Se]Cc2ccccc2)c2cc(Cl)ccc2n1` as the compound, how does the EC50 (Jurkat [1]) read?
Its EC50 is 88.5 µM.

What about the Activity (Jurkat [3]) of the same compound?
Its Activity is “Active”.

What about the Activity (SK-MEL-147 [4]) of the same compound?
Its Activity is “Active”.

And the EC50 (SK-MEL-147 [5])?
The EC50 was 84.5 µM.

For `CCOC(=O)c1cc([Se]c2ccccc2)c2cc(OC)ccc2n1`, which EC50 (Jurkat [1]) is on record?
Its EC50 is 102 µM.

And the Activity (Jurkat [3])?
Its Activity is “Active”.

And the Activity (SK-MEL-147 [4])?
The Activity was “Active”.

And the EC50 (SK-MEL-147 [5])?
The EC50 was 33 µM.

Which EC50 (Jurkat [1]) does the source give for `CCOC(=O)c1cc([Se]c2ccccc2)c2cc(Br)ccc2n1` here?
The EC50 was 20.8 µM.

And the Activity (Jurkat [3])?
Its Activity is “Active”.

And the Activity (SK-MEL-147 [4])?
Its Activity is “Active”.

And the EC50 (SK-MEL-147 [5])?
The EC50 was 12.4 µM.

With `CCOC(=O)c1cc(C#CCCO)c2cc(OC)ccc2n1` as the compound, how does the EC50 (Jurkat [1]) read?
Its EC50 is 123 µM.

What about the Activity (Jurkat [3]) of the same compound?
Its Activity is “Active”.

What about the Activity (SK-MEL-147 [4]) of the same compound?
Its Activity is “Active”.

What about the EC50 (SK-MEL-147 [5]) of the same compound?
Its EC50 is > 150 µM.

What does the source list for `CCOC(=O)c1cc([Se]c2ccccc2)c2ccccc2n1`?
EC50 (Jurkat [1]): 98.2 µM; IC50 [2]: 57.5 µM; IC50 (Cysteine proteinase B): 54 µM; Activity (Jurkat [3]): Active; Activity (SK-MEL-147 [4]): Active; EC50 (SK-MEL-147 [5]): 86.3 µM; IC50 [6]: 25.3 µM

Which EC50 (Jurkat [1]) does the source give for `CCOC(=O)c1cc([Se]c2ccccc2)c2cc(Cl)ccc2n1` here?
Its EC50 is 53 µM.

What about the Activity (Jurkat [3]) of the same compound?
Its Activity is “Active”.

And the Activity (SK-MEL-147 [4])?
The Activity was “Active”.

And the EC50 (SK-MEL-147 [5])?
Its EC50 is 47.1 µM.

With `CCOC(=O)c1cc([Se]c2ccc3cc(OC)ccc3c2)c2cc(Cl)ccc2n1` as the compound, how does the EC50 (Jurkat [1]) read?
Its EC50 is 29.2 µM.

What about the IC50 [2] of the same compound?
The IC50 was 6.35 µM.

And the Activity (Jurkat [3])?
The Activity was “Active”.

What about the Activity (SK-MEL-147 [4]) of the same compound?
The Activity was “Active”.

And the EC50 (SK-MEL-147 [5])?
The EC50 was 16.2 µM.

And the IC50 [6]?
The IC50 was 7.25 µM.

With `COc1ccc2nc(-c3c(Cl)cccc3Cl)cc([Se]c3ccccc3)c2c1` as the compound, how does the EC50 (Jurkat [1]) read?
The EC50 was 17 µM.

What about the Activity (Jurkat [3]) of the same compound?
Its Activity is “Active”.

What about the Activity (SK-MEL-147 [4]) of the same compound?
Its Activity is “Active”.

And the EC50 (SK-MEL-147 [5])?
Its EC50 is > 150 µM.
